{"source": "patent US11117900B2", "about": "(Vertex Pharmaceuticals Incorporated, priority 2012, dated 2021)", "data": [{"test_system": "HCT116 colorectal cancer cells", "assay": "Cisplatin sensitization assay (96 h MTS cell viability);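 also: compound concentration needed to lower the IC50 of Cisplatin alone by a set fold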", "assay_type": "cell-based", "conditions": "Cisplatin sensitization value", "summary_of_the_method": "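The MTS viability read, after 1 h with reagent, followed 96 h of co-treatment at 37° C. in 5% CO2. Both compound and cisplatin were titrated 2-fold from a 10 μM top final concentration in a complete concentration matrix on HCT116 cells. Scores +++/++/+ reflect cisplatin sensitization value ranges.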", "values": [{"smiles": "N#CCc1cnc2c(C(=O)Nc3cnccc3OC3CCC3)c(N)nn2c1", "note": "[I-O-36, 2-amino-6-(cyanomethyl)-N-(4-cyclobutoxypyridin-3-yl)pyrazolo[1,5-a]pyrimidine-3-carboxamide]", "Cisplatin Sensitization Assay": "+++ (Compounds with a Cisplatin sensitization value of <0.02 μM are marked with “+++.”)"}, {"smiles": "N#CCc1cnc2c(C(=O)Nc3cnccc3OC3COC3)c(N)nn2c1", "note": "[I-O-38, 2-amino-6-(cyanomethyl)-N-(4-(oxetan-3-yloxy)pyridin-3-yl)pyrazolo[1,5-a]pyrimidine-3-carboxamide]", "Cisplatin Sensitization Assay": "+++ (Compounds with a Cisplatin sensitization value of <0.02 μM are marked with “+++.”)"}, {"smiles": "N#CCc1cnc2c(C(=O)Nc3cnccc3OC3CCCCC3)c(N)nn2c1", "note": "[I-O-39, 2-amino-6-(cyanomethyl)-N-(4-(cyclohexyloxy)pyridin-3-yl)pyrazolo[1,5-a]pyrimidine-3-carboxamide]", "Cisplatin Sensitization Assay": "+++ (Compounds with a Cisplatin sensitization value of <0.02 μM are marked with “+++.”)"}, {"smiles": "N#CCc1cnc2c(C(=O)Nc3cnccc3OCCCO)c(N)nn2c1", "note": "[I-O-40, 2-amino-6-(cyanomethyl)-N-(4-(3-hydroxypropoxy)pyridin-3-yl)pyrazolo[1,5-a]pyrimidine-3-carboxamide]", "Cisplatin Sensitization Assay": "++ (Compounds with a Cisplatin sensitization value >0.02 μM but <0.2 μM are marked with “++.”)"}, {"smiles": "N#CCc1cnc2c(C(=O)Nc3cnccc3OC3CCCOC3)c(N)nn2c1", "note": "(centres unmarked) [I-O-41, 2-amino-6-(cyanomethyl)-N-(4-((tetrahydro-2H-pyran-3-yl)oxy)pyridin-3-yl)pyrazolo[1,5-a]pyrimidine-3-carboxamide]", "Cisplatin Sensitization Assay": "+++ (Compounds with a Cisplatin sensitization value of <0.02 μM are marked with “+++.”)"}, {"smiles": "N#CCc1cnc2c(C(=O)Nc3cnccc3O[C@H]3CCOC3)c(N)nn2c1", "note": "[I-O-42, (S)-2-amino-6-(cyanomethyl)-N-(4-((tetrahydrofuran-3-yl)oxy)pyridin-3-yl)pyrazolo[1,5-a]pyrimidine-3-carboxamide]", "Cisplatin Sensitization Assay": "+++ (Compounds with a Cisplatin sensitization value of <0.02 μM are marked with “+++.”)"}, {"smiles": "N#CCc1cnc2c(C(=O)Nc3cnccc3OC3CCCC3)c(N)nn2c1", "note": "[I-O-43, 2-amino-6-(cyanomethyl)-N-(4-(cyclopentyloxy)pyridin-3-yl)pyrazolo[1,5-a]pyrimidine-3-carboxamide]", "Cisplatin Sensitization Assay": "+++ (Compounds with a Cisplatin sensitization value of <0.02 μM are marked with “+++.”)"}, {"smiles": "Nc1nn2cc(F)cnc2c1C(=O)Nc1cnccc1OC1CCS(=O)(=O)CC1", "note": "[I-O-45, 2-amino-N-(4-((1,1-dioxidotetrahydro-2H-thiopyran-4-yl)oxy)pyridin-3-yl)-6-fluoropyrazolo[1,5-a]pyrimidine-3-carboxamide]", "Cisplatin Sensitization Assay": "+++ (Compounds with a Cisplatin sensitization value of <0.02 μM are marked with “+++.”)"}, {"smiles": "CN1CCC(Oc2c(Cl)cncc2NC(=O)c2c(N)nn3cc(Cl)cnc23)CC1", "note": "[I-O-46, 2-amino-6-chloro-N-(5-chloro-4-((1-methylpiperidin-4-yl)oxy)pyridin-3-yl)pyrazolo[1,5-a]pyrimidine-3-carboxamide]", "Cisplatin Sensitization Assay": "+ (Compounds with a Cisplatin sensitization value >0.2 μM but <5 μM are marked with “+.”)"}, {"smiles": "CN(C)CCOCCOc1ccncc1NC(=O)c1c(N)nn2cc(Cl)cnc12", "note": "[I-O-47, 2-amino-6-chloro-N-(4-(2-(2-(dimethylamino)ethoxy)ethoxy)pyridin-3-yl)pyrazolo[1,5-a]pyrimidine-3-carboxamide]", "Cisplatin Sensitization Assay": "+ (Compounds with a Cisplatin sensitization value >0.2 μM but <5 μM are marked with “+.”)"}, {"smiles": "CN(C)CCOc1ccncc1NC(=O)c1c(N)nn2cc(Cl)cnc12", "note": "[I-O-48, 2-amino-6-chloro-N-(4-(2-(dimethylamino)ethoxy)pyridin-3-yl)pyrazolo[1,5-a]pyrimidine-3-carboxamide]", "Cisplatin Sensitization Assay": "++ (Compounds with a Cisplatin sensitization value >0.02 μM but <0.2 μM are marked with “++.”)"}, {"smiles": "CN1CCC[C@H]1COc1ccncc1NC(=O)c1c(N)nn2cc(Cl)cnc12", "note": "[I-O-50, (S)-2-amino-6-chloro-N-(4-((1-methylpyrrolidin-2-yl)methoxy)pyridin-3-yl)pyrazolo[1,5-a]pyrimidine-3-carboxamide]", "Cisplatin Sensitization Assay": "+ (Compounds with a Cisplatin sensitization value >0.2 μM but <5 μM are marked with “+.”)"}, {"smiles": "CN(C)CCCOc1ccncc1NC(=O)c1c(N)nn2cc(Cl)cnc12", "note": "[I-O-52, 2-amino-6-chloro-N-(4-(3-(dimethylamino)propoxy)pyridin-3-yl)pyrazolo[1,5-a]pyrimidine-3-carboxamide]", "Cisplatin Sensitization Assay": "+ (Compounds with a Cisplatin sensitization value >0.2 μM but <5 μM are marked with “+.”)"}, {"smiles": "Nc1nn2cc(Cl)cnc2c1C(=O)Nc1cnccc1OCCCO", "note": "[I-O-53, 2-amino-6-chloro-N-(4-(3-hydroxypropoxy)pyridin-3-yl)pyrazolo[1,5-a]pyrimidine-3-carboxamide]", "Cisplatin Sensitization Assay": "+++ (Compounds with a Cisplatin sensitization value of <0.02 μM are marked with “+++.”)"}, {"smiles": "Nc1nn2cc(Cl)cnc2c1C(=O)Nc1cnccc1O[C@@H]1CCOC1", "note": "[I-O-54, (R)-2-amino-6-chloro-N-(4-((tetrahydrofuran-3-yl)oxy)pyridin-3-yl)pyrazolo[1,5-a]pyrimidine-3-carboxamide]", "Cisplatin Sensitization Assay": "+++ (Compounds with a Cisplatin sensitization value of <0.02 μM are marked with “+++.”)"}, {"smiles": "COCCOc1ccncc1NC(=O)c1c(N)nn2cc(Cl)cnc12", "note": "[I-O-55, 2-amino-6-chloro-N-(4-(2-methoxyethoxy)pyridin-3-yl)pyrazolo[1,5-a]pyrimidine-3-carboxamide]", "Cisplatin Sensitization Assay": "++ (Compounds with a Cisplatin sensitization value >0.02 μM but <0.2 μM are marked with “++.”)"}, {"smiles": "CCOc1ccncc1NC(=O)c1c(N)nn2cc(Cl)cnc12", "note": "[I-O-56, 2-amino-6-chloro-N-(4-ethoxypyridin-3-yl)pyrazolo[1,5-a]pyrimidine-3-carboxamide]", "Cisplatin Sensitization Assay": "+++ (Compounds with a Cisplatin sensitization value of <0.02 μM are marked with “+++.”)"}, {"smiles": "COc1ccncc1NC(=O)c1c(N)nn2cc(Cl)cnc12", "note": "[I-O-57, 2-amino-6-chloro-N-(4-methoxypyridin-3-yl)pyrazolo[1,5-a]pyrimidine-3-carboxamide]", "Cisplatin Sensitization Assay": "+++ (Compounds with a Cisplatin sensitization value of <0.02 μM are marked with “+++.”)"}, {"smiles": "Nc1nn2cc(Cl)cnc2c1C(=O)Nc1cnccc1O[C@H]1CCOC1", "note": "[I-O-58, (S)-2-amino-6-chloro-N-(4-((tetrahydrofuran-3-yl)oxy)pyridin-3-yl)pyrazolo[1,5-a]pyrimidine-3-carboxamide]", "Cisplatin Sensitization Assay": "+++ (Compounds with a Cisplatin sensitization value of <0.02 μM are marked with “+++.”)"}, {"smiles": "Nc1nn2cc(Cl)cnc2c1C(=O)Nc1cnccc1OCC(F)(F)F", "note": "[I-O-59, 2-amino-6-chloro-N-(4-(2,2,2-trifluoroethoxy)pyridin-3-yl)pyrazolo[1,5-a]pyrimidine-3-carboxamide]", "Cisplatin Sensitization Assay": "+++ (Compounds with a Cisplatin sensitization value of <0.02 μM are marked with “+++.”)"}, {"smiles": "Nc1nn2cc(Cl)cnc2c1C(=O)Nc1cnccc1OCCN1CCOCC1", "note": "[I-O-60, 2-amino-6-chloro-N-(4-(2-morpholinoethoxy)pyridin-3-yl)pyrazolo[1,5-a]pyrimidine-3-carboxamide]", "Cisplatin Sensitization Assay": "++ (Compounds with a Cisplatin sensitization value >0.02 μM but <0.2 μM are marked with “++.”)"}, {"smiles": "Nc1nn2cc(Cl)cnc2c1C(=O)Nc1cnccc1OC1CCOCC1", "note": "[I-O-61, 2-amino-6-chloro-N-(4-((tetrahydro-2H-pyran-4-yl)oxy)pyridin-3-yl)pyrazolo[1,5-a]pyrimidine-3-carboxamide]", "Cisplatin Sensitization Assay": "+++ (Compounds with a Cisplatin sensitization value of <0.02 μM are marked with “+++.”)"}, {"smiles": "Nc1nn2cc(Cl)cnc2c1C(=O)Nc1cnccc1OC1CN2CCC1CC2", "note": "(centres unmarked) [I-O-62, 2-amino-6-chloro-N-(4-(quinuclidin-3-yloxy)pyridin-3-yl)pyrazolo[1,5-a]pyrimidine-3-carboxamide]", "Cisplatin Sensitization Assay": "+++ (Compounds with a Cisplatin sensitization value of <0.02 μM are marked with “+++.”)"}, {"smiles": "CN1CCC(Oc2ccncc2NC(=O)c2c(N)nn3cc(Cl)cnc23)CC1", "note": "[I-O-64, 2-amino-6-chloro-N-(4-((1-methylpiperidin-4-yl)oxy)pyridin-3-yl)pyrazolo[1,5-a]pyrimidine-3-carboxamide]", "Cisplatin Sensitization Assay": "+++ (Compounds with a Cisplatin sensitization value of <0.02 μM are marked with “+++.”)"}, {"smiles": "Nc1nn2cc(Cl)cnc2c1C(=O)Nc1cnccc1OC1CCCOC1", "note": "(centres unmarked) [I-O-65, 2-amino-6-chloro-N-(4-((tetrahydro-2H-pyran-3-yl)oxy)pyridin-3-yl)pyrazolo[1,5-a]pyrimidine-3-carboxamide]", "Cisplatin Sensitization Assay": "+++ (Compounds with a Cisplatin sensitization value of <0.02 μM are marked with “+++.”)"}, {"smiles": "Nc1nn2cc(Cl)cnc2c1C(=O)Nc1cnccc1OCCO", "note": "[I-O-66, 2-amino-6-chloro-N-(4-(2-hydroxyethoxy)pyridin-3-yl)pyrazolo[1,5-a]pyrimidine-3-carboxamide]", "Cisplatin Sensitization Assay": "+ (Compounds with a Cisplatin sensitization value >0.2 μM but <5 μM are marked with “+.”)"}, {"smiles": "COCCN1CCC[C@H](Oc2ccncc2NC(=O)c2c(N)nn3cc(Cl)cnc23)C1", "note": "[I-O-67, (S)-2-amino-6-chloro-N-(4-((1-(2-methoxyethy)piperidin-3-yl)oxy)pyridin-3-yl)pyrazolo[1,5-a]pyrimidine-3-carboxamide]", "Cisplatin Sensitization Assay": "++ (Compounds with a Cisplatin sensitization value >0.02 μM but <0.2 μM are marked with “++.”)"}, {"smiles": "CN(C)CCOc1cc(Cl)ncc1NC(=O)c1c(N)nn2cc(Cl)cnc12", "note": "[I-O-68, 2-amino-6-chloro-N-(6-chloro-4-(2-(dimethylamino)ethoxy)pyridin-3-yl)pyrazolo[1,5-a]pyrimidine-3-carboxamide]", "Cisplatin Sensitization Assay": "++ (Compounds with a Cisplatin sensitization value >0.02 μM but <0.2 μM are marked with “++.”)"}, {"smiles": "CN1CC[C@H](Oc2ccncc2NC(=O)c2c(N)nn3cc(Cl)cnc23)C1", "note": "[I-O-69, (S)-2-amino-6-chloro-N-(4-((1-methylpyrrolidin-3-yl)oxy)pyridin-3-yl)pyrazolo[1,5-a]pyrimidine-3-carboxamide]", "Cisplatin Sensitization Assay": "++ (Compounds with a Cisplatin sensitization value >0.02 μM but <0.2 μM are marked with “++.”)"}]}]}
